Assay results: patent US20250101129A1, “AFFINITY SUBSTANCE, COMPOUND, AND ANTIBODY AND THEIR SALTS” (Ajinomoto Co., Inc., priority 2022, published 2025)

Tested on: CD3-activated human T cells containing PD-1-positive cells
Experiment: Flow cytometry binding to CD3-activated human T cells
Assay type: cell-based
Conditions: primary antibody final concentration 20 g/mL as printed, Alexa Fluor 488 anti-human IgG secondary
Description: The cells used were CD3-activated human T cells containing HER2-positive SKBR-3 cells, EGFR-positive A-431 cells, and PD-1-positive cells.
200,000 cells cultured in D-MEM medium (Thermo Fisher Scientific, Inc.) supplemented with 10% FBS (Thermo Fisher Scientific, Inc.) were collected, and 20 μL of PBS containing Human TruStain FcX (Biolegend) was added, followed by blocking of Fc receptors on ice for 10 minutes. The primary antibody reaction was performed by adding the above-described antibodies as primary antibodies to a cell staining buffer (PBS containing 1% FBS) to a final concentration of 20 g/mL, adding 20 μL of the mixtures to the cells, and incubating them for 20 minutes on ice. The cells after the primary antibody reaction were washed twice with the cell staining buffer. The second antibody reaction was performed by adding 40 μL of Goat anti-Human IgG (H+L) Cross-Adsorbed Secondary Antibody, Alexa Fluor™488 (Thermo Fisher Scientific, Inc.) diluted with the cell staining buffer to 10 g/mL as the second antibody to the cells, and incubating the cells on ice for 20 minutes. The cells were washed twice with the cell staining buffer, and then subjected to analysis using Attune NxT Flow Cytometer (Thermo Fisher Scientific, Inc.).

Substance: pembrolizumab
- cells in which fluorescence was observed (positive rate), CD3-activated human T cells: about 23%
